Type in all cases: in vivo
Settings in all cases: active ingredient amount 31 g/ha, 14th day after application

In assay [1] the test system is green foxtail (Setaria viridis L.). Put plainly: Test Example 2: soil application on the day after sowing, growth inhibition rate on 14th day. From the text: (§1) Upland field soil was put into a 1/300,000 hectare pot, and seeds of various plants (barnyardgrass (Echinochloa crus-qalli L.), crabgrass (Digitaris sanquinalis L.), green foxtail (Setaria viridis L.), redroot pigweed (Amaranthus retroflexus L.), prickly sida (Sida spinosa L.), velvetleaf (Abutilon theophrasti MEDIC.), rice (Oryza sativa L.), corn (Zea mays L.), wheat (Triticum aestivum L.), soybean (Glycine max Merr.)) were sown. On the day after sowing, wettable powders or emulsifiable concentrates of the compounds of the present invention prepared in accordance with a conventional preparation method, were weighed so as to achieve the prescribed active ingredient amounts, and diluted with water in an amount corresponding to 1,000 liters per 1 hectare, followed by soil application by a small sprayer.
(§2) On the 14th day after the application, the state of growth of the respective plants was visually observed, and the herbicidal effect was evaluated by a growth inhibition rate (%) of 0 (equivalent to the non-treated area) to 100 (complete kill).

Assay [2] has as its system rice (Oryza sativa L.). Described as above.
From the text: as §1, §2

For assay [3], the system named is corn (Zea mays L.). The assay is described as above.
From the text: as §1, §2

For assay [4], the system named is crabgrass (Digitaris sanquinalis L.). The assay is described as above.
From the text: as §1, §2

Assay [5] concerns redroot pigweed (Amaranthus retroflexus L.). The assay is described as above.
From the text: as §1, §2

Assay [6] has as its system wheat (Triticum aestivum L.). The assay is described as above.
From the text: as §1, §2

The subject of assay [7] is barnyardgrass (Echinochloa crus-qalli L.). Described as above.
From the text: as §1, §2

Assay [8] deals with velvetleaf (Abutilon theophrasti MEDIC.). The assay is described as above.
From the text: as §1, §2

The subject of assay [9] is soybean (Glycine max Merr.). The description is as above.
From the text: as §1, §2

In assay [10] the test system is prickly sida (Sida spinosa L.). The description is as above.
From the text: as §1, §2

For assay [11], the system named is green foxtail (Setaria viridis L.). Put plainly: Test Example 1: foliar treatment, growth inhibition rate on 14th day. A digest of the protocol:
(§3)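 Growth inhibition rates (%) come from visual observation on the 14th day following a single foliar application. Soybean was sprayed at the primary leaf stage, rice at 0.2–2.7 leaves, wild oat at 0.4–1.2, green foxtail at 0.5–3.2.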

Assay [12] has as its system rice (Oryza sativa L.). The description is as above. A digest of the protocol:
as §3

For assay [13], the system named is crabgrass (Digitaria sanquinalis L.). The description is as above. A digest of the protocol:
(§4)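 Visual 0–100% inhibition scoring (100 = complete kill) at 14 days after foliar treatment of soil-grown seedlings at species-specific leaf stages, with the compound sprayed as a wettable powder or emulsifiable concentrate dilution.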

The test system of assay [14] is corn (Zea mays L.). The assay is described as above. Put shortly:
as §4

Assay [15] has as its system redroot pigweed (Amaranthus retroflexus L.). The assay is described as above. Put shortly:
as §4

The subject of assay [16] is wheat (Triticum aestivum L.). The description is as above. A digest of the protocol: as §4
The subject of assay [17] is wild oat (Avena fatua L.). The assay is described as above. A digest of the protocol: as §3
Assay [18] has as its system barnyardgrass (Echinochloa crus-qalli L.). The description is as above. A digest of the protocol: as §4
The test system of assay [19] is italian ryegrass (Lolium multiflorum Lam.). Described as above. Put shortly: as §4
In assay [20] the test system is soybean (Glycine max Merr.). The assay is described as above. A digest of the protocol:
as §3

Molecules are shown by their SMILES.

In the case of `Cc1ccc(Oc2ncc(C(F)(F)F)cc2Cl)cc1-c1c(O)c(C)nn(C)c1=O` [1-1], the figures for the “Growth inhibition rate (%) Green foxtail” value in assay [1] and in assay [11] were 100% and 99%, respectively. Besides, the “Growth inhibition rate (%) Rice” value in the assay with rice (Oryza sativa L.) [2] came out at 20%; in the assay with rice (Oryza sativa L.) [12], 80%. For the same molecule, the “Growth inhibition rate (%) Corn” value amounted to 50% with corn (Zea mays L.) [3] and 90% in the assay with corn (Zea mays L.) [14]. The “Growth inhibition rate (%) Crabgrass” value is given as 100% in [4] and 95% in [13]. Moreover, the “Growth inhibition rate (%) Redroot pigweed” value in assay [5] amounted to 0%; in assay [15] it was 10%. Moreover, the figures for the “Growth inhibition rate (%) Wheat” value in [6] and in assay [16] were 0% and 65%, respectively. The entries for the “Growth inhibition rate (%) Barnyardgrass” value in [7] and in assay [18] were 85% and 100%, respectively. In [8], the “Growth inhibition rate (%) Velvetleaf” value worked out at 0%. Further, the “Growth inhibition rate (%) Soybean” value in [9] and in assay [20] was 0% in each case. Also, in [10], the “Growth inhibition rate (%) Prickly sida” value came out at 0%. Also, the “Growth inhibition rate (%) Wild oat” value in [17] is 98%. The “Growth inhibition rate (%) Italian ryegrass” value in [19] is given as 98%.

For `CCc1ccc(Oc2ncc(C(F)(F)F)cc2Cl)cc1-c1c(O)c(C)nn(C)c1=O` [1-3], the “Growth inhibition rate (%) Green foxtail” value in [1] and in assay [11] was 100% each time. In addition, the “Growth inhibition rate (%) Rice” value was found to be 80% in the assay on rice (Oryza sativa L.) [2] and 75% with rice (Oryza sativa L.) [12]. Besides, the “Growth inhibition rate (%) Corn” value with corn (Zea mays L.) [3] was 90%; in the assay on corn (Zea mays L.) [14], 99%. Further, the results for the “Growth inhibition rate (%) Crabgrass” value in [4] and in assay [13] were 100% and 99%, respectively. The “Growth inhibition rate (%) Redroot pigweed” value in assay [5] and in [15] was 0% throughout. Also, the figures for the “Growth inhibition rate (%) Wheat” value in [6] and in assay [16] were 35% and 15%, respectively. In addition, the “Growth inhibition rate (%) Barnyardgrass” value in assay [7] and in [18] was 100% each time. For the same molecule, in [8], the “Growth inhibition rate (%) Velvetleaf” value is recorded as 0%. Further, the “Growth inhibition rate (%) Soybean” value in assay [9] came to 0%; in assay [20], 15%. Besides, in assay [10], the “Growth inhibition rate (%) Prickly sida” value was determined as 0%. The “Growth inhibition rate (%) Wild oat” value in assay [17] is recorded as 98%. In assay [19], the “Growth inhibition rate (%) Italian ryegrass” value amounted to 98%.

Consider `CCc1ccc(Sc2ncc(C(F)(F)F)cc2Cl)cc1-c1c(O)c(C)nn(C)c1=O` [1-4], for which the “Growth inhibition rate (%) Green foxtail” value in [1] is given as 98%; in [11], 100%. Also, the “Growth inhibition rate (%) Rice” value was 40% in the assay with rice (Oryza sativa L.) [2] and 20% in the assay with rice (Oryza sativa L.) [12]. For the same molecule, the “Growth inhibition rate (%) Corn” value in the assay with corn (Zea mays L.) [3] turned out to be 0%; in the assay with corn (Zea mays L.) [14], 93%. The “Growth inhibition rate (%) Crabgrass” value in [4] is given as 99%; in [13], 95%. For the same molecule, the “Growth inhibition rate (%) Redroot pigweed” value was determined as 0% in assay [5] and 10% in [15]. The “Growth inhibition rate (%) Wheat” value in [6] amounted to 0%; in assay [16], 10%. For the same molecule, the entries for the “Growth inhibition rate (%) Barnyardgrass” value in assay [7] and in assay [18] were 100% and 99%, respectively. Moreover, the “Growth inhibition rate (%) Velvetleaf” value in assay [8] came to 0%. Moreover, the “Growth inhibition rate (%) Soybean” value in [9] worked out at 0%; in assay [20], 35%. In addition, the “Growth inhibition rate (%) Prickly sida” value in assay [10] is recorded as 0%. For the same molecule, the “Growth inhibition rate (%) Wild oat” value in [17] came to 99%. Besides, the “Growth inhibition rate (%) Italian ryegrass” value in assay [19] turned out to be 95%.

Turning to `Cc1cc(C)c(-c2c(O)c(C)nn(C)c2=O)cc1Oc1ncc(C(F)(F)F)cc1Cl` [1-14], the “Growth inhibition rate (%) Green foxtail” value is recorded as 93% in assay [1] and 98% in assay [11]. In addition, the “Growth inhibition rate (%) Rice” value in the assay on rice (Oryza sativa L.) [2] was found to be 0%; in the assay on rice (Oryza sativa L.) [12] it was 80%. Moreover, the “Growth inhibition rate (%) Corn” value was 0% in the assay with corn (Zea mays L.) [3] and 70% in the assay with corn (Zea mays L.) [14]. Moreover, the “Growth inhibition rate (%) Crabgrass” value in assay [4] was 83%; in assay [13] it was 93%. In addition, the “Growth inhibition rate (%) Redroot pigweed” value in [5] and in assay [15] was 0% each time. Further, the “Growth inhibition rate (%) Wheat” value in [6] and in assay [16] was 0% in each case. In addition, the “Growth inhibition rate (%) Barnyardgrass” value in [7] came out at 99%; in assay [18], 98%. Further, the “Growth inhibition rate (%) Velvetleaf” value in [8] amounted to 0%. Moreover, the “Growth inhibition rate (%) Soybean” value in [9] and in [20] was 0% throughout. Also, the “Growth inhibition rate (%) Prickly sida” value in [10] is given as 0%. Besides, in assay [17], the “Growth inhibition rate (%) Wild oat” value was 95%. Also, the “Growth inhibition rate (%) Italian ryegrass” value in assay [19] turned out to be 85%.

As to `Cc1ccc(Oc2cnc3cc(Cl)ccc3n2)cc1-c1c(O)c(C)nn(C)c1=O` [Compound 2-7], the “Growth inhibition rate (%) Green foxtail” value in [1] and in assay [11] was 100% throughout. The “Growth inhibition rate (%) Rice” value came out at 40% in the assay with rice (Oryza sativa L.) [2] and 100% in the assay on rice (Oryza sativa L.) [12]. Further, the “Growth inhibition rate (%) Corn” value in the assay on corn (Zea mays L.) [3] came to 20%; in the assay on corn (Zea mays L.) [14] it was 10%. Besides, in assay [4], the “Growth inhibition rate (%) Crabgrass” value worked out at 99%. In addition, the “Growth inhibition rate (%) Redroot pigweed” value in [5] came out at 0%; in assay [15], 50%. Also, the “Growth inhibition rate (%) Wheat” value in [6] amounted to 25%; in assay [16], 98%. The “Growth inhibition rate (%) Barnyardgrass” value in assay [7] is given as 99%; in assay [18] it was 100%. Also, in [8], the “Growth inhibition rate (%) Velvetleaf” value is on record as 0%. Further, the “Growth inhibition rate (%) Soybean” value in assay [9] and in assay [20] was 0% throughout. In addition, the “Growth inhibition rate (%) Prickly sida” value in [10] was found to be 0%. Also, in assay [17], the “Growth inhibition rate (%) Wild oat” value turned out to be 98%. Besides, in [19], the “Growth inhibition rate (%) Italian ryegrass” value stood at 100%.

Take `CC(=O)Oc1cnn(C)c(=O)c1-c1cc(Oc2nc3cc(Cl)ccc3o2)ccc1C` [Compound 2-174]: the entries for the “Growth inhibition rate (%) Green foxtail” value in assay [1] and in [11] were 0% and 93%, respectively. Moreover, the entries for the “Growth inhibition rate (%) Rice” value in the assay with rice (Oryza sativa L.) [2] and in the assay on rice (Oryza sativa L.) [12] were 0% and 93%, respectively. In addition, the figures for the “Growth inhibition rate (%) Corn” value with corn (Zea mays L.) [3] and in the assay on corn (Zea mays L.) [14] were 20% and 95%, respectively. In addition, the “Growth inhibition rate (%) Crabgrass” value in assay [4] is given as 80%; in assay [13], 93%. Also, in assay [5], the “Growth inhibition rate (%) Redroot pigweed” value was found to be 0%. In addition, the “Growth inhibition rate (%) Wheat” value was determined as 0% in [6] and 93% in assay [16]. Further, the “Growth inhibition rate (%) Barnyardgrass” value in assay [7] stood at 20%; in [18] it was 100%. In addition, the “Growth inhibition rate (%) Velvetleaf” value in assay [8] is recorded as 0%. The “Growth inhibition rate (%) Soybean” value in [9] and in assay [20] was 0% each time. In assay [10], the “Growth inhibition rate (%) Prickly sida” value amounted to 0%. Further, the “Growth inhibition rate (%) Wild oat” value in [17] is 88%. Also, the “Growth inhibition rate (%) Italian ryegrass” value in [19] was determined as 95%.
